The numbers were not newly measured in paper PMC9494641 (ACS Omega, 2022), which cites them from elsewhere.

Series [1] has as its target JAK2 (Homo sapiens, UniProt O60674). The note with it: read-out: Kd JAK2.
Series [2] deals with JAK1. The following applies: read-out: IC50 JAK1.
In series [3] the test system is JAK2 expressing SET-2 cell line.

Chain of JAK2 (O60674 808-1132 limits assumed): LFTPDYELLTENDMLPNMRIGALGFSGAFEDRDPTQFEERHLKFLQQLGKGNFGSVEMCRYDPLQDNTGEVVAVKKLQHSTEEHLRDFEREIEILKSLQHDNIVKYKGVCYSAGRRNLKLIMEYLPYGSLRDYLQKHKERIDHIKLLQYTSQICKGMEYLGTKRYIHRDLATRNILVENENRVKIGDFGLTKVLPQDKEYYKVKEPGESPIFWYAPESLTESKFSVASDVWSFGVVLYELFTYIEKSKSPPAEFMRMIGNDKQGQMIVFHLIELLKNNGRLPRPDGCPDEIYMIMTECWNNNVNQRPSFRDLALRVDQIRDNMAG

Broadly, the Kd is the concentration at which binding is half-saturated. For the compound `CCN(CC)CCC(CNc1ccnc2cc(Cl)ccc12)c1ccc(O)cc1` (stereo not drawn) [NSC13626], the Kd in series [1] was 6600 nM.

Usually IC50 stands for the concentration that gives 50% inhibition. On to `N#CC[C@H](C1CCCC1)n1cc(-c2ncnc3[nH]ccc23)cn1` [Ruxolitinib], for which the IC50 in series [2] was […].

`Cc1cc(Nc2nc(N[C@@H](C)c3ccc(F)cc3)c(C#N)cc2F)[nH]n1` [AZ960]: the 50% inhibitory concentration (IC50) in series [3] is below 3 nM.
